Data reported in patent publication US11976280B2, “SMAC/Diablo inhibitors useful for treating cancer” (THE NATIONAL INSTITUTE FOR BIOTECHNOLOGY IN THE NEGEV LTD., priority 2017, dated 2024).
Non-standard residues stand in square brackets, D forms with d. No end group written: not given here. Dmt = Cc1cc(O)cc(C)c1C[C@H](N)C(=O)O; Orn = NCCC[C@H](N)C(=O)O; d = 2'-deoxy (DNA); m = 2'-O-methyl; r = 2'-OH (RNA)

Experiments:
[1] = tested on: A549 cells; assay: SRB cell growth of A549 cells treated with peptide conjugates (Table 8); type: cell-based, human; conditions: 48 h in serum (10%) medium or 24 h serum-free, mean±SD (n=3)
Method: A549 cells were seeded in 96-well plate (5000 cells/well). After 24 h cells were incubated with each of the examined peptides at a concentration of 5, 10, or 30 μM for 48 h in a serum (10%) containing medium or for 24 h in a serum-free medium. Then, cells were washed with PBS, fixed with 10% trichloroacetic acid, and analyzed for cell growth using the SRB method described herein above. Cell growth with no addition of a peptide was taken as a control (100% cell growth). Table 8 presents the cell growth in the presence of the peptide as % of control. Results are the mean±SD (n=3).

[2] = tested on: A549 cells; assay: SRB cell growth assay, si-hSMAC B-D and 2′-O-Me modified siRNAs; type: cell-based, human; conditions: 30 and 50 nM
Method: The siRNAs were synthesized by Genepharma (Suzhou, China). Cells were seeded (150,000 cells/well) on 6-well culture dishes to 40-60% confluence and transfected with 10-100 nM si-NT or si-hSMAC/Diablo using the JetPRIME transfection reagent (Illkirch, France), according to the manufacturers' instructions.
Twenty-four hours post-transfection with si-NT or si-hSMAC, cells (10,000/well) were counted and seeded in 96-well plates. After additional 48, 72 or 96 hours, the cells were washed with PBS, fixed with 10% trichloroacetic acid, and stained with SRB. SRB was extracted from the cells using 100 mM Tris base and absorbance at 510 nm was determined using an Infinite M1000 plate reader (Tecan, Männedorf, Switzerland).
si-hSMAC-A and si-hSMAC-B were modified by 2′-O methylation (2′-O Me) to form si-hSMAC-A1, si-hSMAC-A2 si-hSMAC-A3 si-hSMAC-A4 si-hSMAC-B1 si-hSMAC-B2 si-hSMAC-B3 and si-hSMAC-B4 described hereinabove. The effect of these modified forms on SMAC/Diablo expression and on cell proliferation was examined using 30 and 50 nM of each inhibitory RNA molecule in the lung cancer line A549.

[3] = biological target: T1, SMAC/Diablo (Homo sapiens, UniProt Q9NR28); assay: Peptide array after pre-incubation of SMAC/Diablo with free peptide; type: binding; conditions: for SMAC/Diablo interaction with the corresponding array-bound peptide: SMAC 0.8 μM pre-incubated with free peptide 2.4 μM
T1 sequence (Q9NR28 22-239): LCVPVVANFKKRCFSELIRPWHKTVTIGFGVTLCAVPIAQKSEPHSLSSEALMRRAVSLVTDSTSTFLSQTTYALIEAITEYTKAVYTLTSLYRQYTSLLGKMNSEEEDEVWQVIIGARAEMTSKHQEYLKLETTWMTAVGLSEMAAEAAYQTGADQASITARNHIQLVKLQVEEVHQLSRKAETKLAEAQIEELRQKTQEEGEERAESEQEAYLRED
Method: The glass-bound peptide array described hereinabove was used. SMAC/Diablo (0.8 μM) was incubated with each of the peptides—2C18 (2.4 μM) and 1G12 (2.4 μM) for 2 hr at 24° C. and then incubated with the peptide array for 4 h at 4° C. Then the slides were washed and SMAC/Diablo antibodies (1:2000) were added, followed by incubation with HRP-conjugated anti-mouse IgG after which chemiluminescent spots were detected. Corresponding glass-bound peptide array incubated overnight with 0.8 μM free SMAC/Diablo, blotted with the same concentration of SMAC/Diablo antibodies followed by incubation with HRP-conjugated anti-mouse IgG served as a control. […] This is indicated by the decreased intensity or disappearance of chemiluminescence in the peptide spot position compared to the control (FIG. 16 and FIG. 17, respectively). Moreover, pre-incubation of SMAC/Diablo with peptide 2C18 decreased SMAC/Diablo interaction with the array-bound peptides 1M17 and 1N23 derived from Nuclear receptor subfamily 4 group A member 1 Protein (NR4A1) and peptide 1K20 derived from TNF receptor associated factor 2 Protein (TRAF2) (FIG. 16B, eliminated spots are circled).

[4] = pre-incubation with free peptide 2.4 μM

nuCPP-1G12: peptide conjugate targeted to nucleus, SEQ ID NO:71 (R[dR]RKLIRKNRMALFQQLTCVLPILDNLLK)
Cell growth, % of control ([1]; peptide 5 μM): 96 ± 0.012 % of control
Cell growth, % of control ([1]; peptide 10 μM): 72 ± 0.01 % of control
Cell growth, % of control ([1]; peptide 30 μM): 66 ± 0.009 % of control

si-hSMAC-A1: si-hSMAC-A with 2′-O-Me at sense positions 5, 10, 16, 21 (SEQ ID NO:28) and antisense 6, 12, 19 (SEQ ID NO:29) (sense AAGCGGUGUUUCUCAGAAUUGTT; antisense AACAAUUCUGAGAAACCCGCTT; sense: sugars from the 5' end rrrrmrrrrmrrrrrmrrrrmdd, backbone not given here; antisense: sugars from the 5' end rrrrrmrrrrrmrrrrrrmrdd, backbone not given here)
reducing cell proliferation, ranking among modified molecules [2]: most active in reducing cell proliferation

si-hSMAC-A4: si-hSMAC-A with 2′-O-Me at sense positions 3, 6, 11, 21 (SEQ ID NO:34) and antisense 6, 19 (SEQ ID NO:35) (sense AAGCGGUGUUUCUCAGAAUUGTT; antisense AACAAUUCUGAGAAACCCGCTT; sense: sugars from the 5' end rrmrrmrrrrmrrrrrrrrrmdd, backbone not given here; antisense: sugars from the 5' end rrrrrmrrrrrrrrrrrrmrdd, backbone not given here)
reducing cell proliferation, ranking among modified molecules [2]: most active in reducing cell proliferation

ANT-2C18 (MRQIKIWFQNRRMKWKVRFITKIWHPNISSVTGAICLDILK)
Cell growth, % of control ([1]; peptide 5 μM): 127 ± 0.006 % of control
Cell growth, % of control ([1]; peptide 10 μM): 145 ± 0.0162 % of control
Cell growth, % of control ([1]; peptide 30 μM): 97 ± 0.011 % of control

si-hSMAC-B3: si-hSMAC-B with 2′-O-Me at sense positions 6, 10, 15 (SEQ ID NO:40) and antisense 2, 9, 17 (SEQ ID NO:41) (sense GCAGAUCAGGCCUCUAUAATT; antisense UUAUAGAGGCCUGAUCUGCTT; sense: sugars from the 5' end rrrrrmrrrmrrrrmrrrrdd, backbone not given here; antisense: sugars from the 5' end rmrrrrrrmrrrrrrrmrrdd, backbone not given here)
reducing cell proliferation, ranking among modified molecules [2]: most active

mtCPP-2C18: peptide conjugate targeted to mitochondria, SEQ ID NO:74 ([dR][Dmt][Orn]FVRFITKIWHPNISSVTGAICLDILK)
Cell growth, % of control ([1]; peptide 5 μM): 89 ± 0.005 % of control
Cell growth, % of control ([1]; peptide 10 μM): 74 ± 0.004 % of control
Cell growth, % of control ([1]; peptide 30 μM): 59 ± 0.004 % of control

LIRKNRMALFQQLTCVLPILDNLLK [1G12]
SMAC/Diablo interaction with the corresponding array-bound peptide [3]: significantly decreased or even prevented
SMAC/Diablo interaction with array-bound 1G12, 1G13, 1H13 (BIRC5) and 2D9 (MAML2) [3, 4]: significantly reduced

TF-1G12: peptide conjugate targeted to cytosol, SEQ ID NO:76 (HAIYPRLIRKNRMALFQQLTCVLPILDNLLK; not fully specified)
Cell growth, % of control ([1]; peptide 5 μM): 99 ± 0.004 % of control
Cell growth, % of control ([1]; peptide 10 μM): 98 ± 0.005 % of control
Cell growth, % of control ([1]; peptide 30 μM): 99 ± 0.005 % of control

1G12-nuCPP: peptide conjugate targeted to nucleus, SEQ ID NO:70 (LIRKNRMALFQQLTCVLPILDNLLKR[dR]RK)
Cell growth, % of control ([1]; peptide 5 μM): 109 ± 0.013 % of control
Cell growth, % of control ([1]; peptide 10 μM): 76 ± 0.024 % of control
Cell growth, % of control ([1]; peptide 30 μM): 39 ± 0.013 % of control

si-hSMAC-B2: si-hSMAC-B with 2′-O-Me at sense positions 4, 9, 13, 17 (SEQ ID NO:38) and antisense 6, 12, 18 (SEQ ID NO:39) (sense GCAGAUCAGGCCUCUAUAATT; antisense UUAUAGAGGCCUGAUCUGCTT; sense: sugars from the 5' end rrrmrrrrmrrrmrrrmrrdd, backbone not given here; antisense: sugars from the 5' end rrrrrmrrrrrmrrrrrmrdd, backbone not given here)
reducing cell proliferation, ranking among modified molecules [2]: most active

1H13-mtCPP-NH2: peptide conjugate targeted to mitochondria, SEQ ID NO:73 (SGCAFLSVKKQFEELTLGEFLKLD[dR][Dmt][Orn]F-NH2)
Cell growth, % of control ([1]; peptide 5 μM): 85 ± 0.022 % of control
Cell growth, % of control ([1]; peptide 10 μM): 60 ± 0.018 % of control
Cell growth, % of control ([1]; peptide 30 μM): 49 ± 0.014 % of control

1H13-nuCPP: peptide conjugate targeted to nucleus, SEQ ID NO:69 (SGCAFLSVKKQFEELTLGEFLKLDR[dR]RK)
Cell growth, % of control ([1]; peptide 5 μM): 92 ± 0.018 % of control
Cell growth, % of control ([1]; peptide 10 μM): 57 ± 0.013 % of control
Cell growth, % of control ([1]; peptide 30 μM): 30 ± 0.009 % of control

VRFITKIWHPNISSVTGAICLDILK [2C18]
SMAC/Diablo interaction with the corresponding array-bound peptide [3]: significantly decreased or even prevented
SMAC/Diablo interaction with array-bound peptides 1M17, 1N23 (NR4A1) and 1K20 (TRAF2) [3, 4]: decreased
